Holding throughout (format): cell-based
The subject of one assay is ER-RAR-β. In words: Example 10: repression of basal gene activity, ERE-tk-Luc, CV-1 cells. To be noted: 10^−9 to 10^−6 M, 18 hours, single agent. From the text: (§1) More specifically, these procedures employed the ER-RAR chimeric receptor and ERE-tk-Luc reporter system. The ERE-tk-Luc plasmid includes the region −397 to −87 of the estrogen responsive 5′-flanking region of the Xenopus vitellogenin A2 gene, described by Klein-Hitpass, et al. in Cell 46:1053-1061 (1986), ligated upstream of the HSV thymidine kinase promoter and luciferase reporter gene of plasmid tk-Luc. The ER-RAR chimeric receptors consisted of the estrogen receptor DNA binding domain fused to the “D-E-F” domain of the RARs. Those having ordinary skill in the art appreciate this “D-E-F” domain functions to bind retinoid, to provide a retinoid inducible transactivation function and to provide a contact site for heterodimerization with RXR. Thus, luciferase expression in this reporter system was dependent on activation of the transfected chimeric receptor construct.
(§2) CV-1 cells were co-transfected with the ERE-tk-Luc reporter plasmid and either ER-RAR-α, ER-RAR-β or ER-RAR-γ expression plasmids. The ERE-tk-Luc plasmid contained the estrogen-responsive promoter element of the Xenopus laevis vitellogenin A2 gene and was substantially identical to the reporter plasmid described by Klein-Hitpass et al. in Cell 46:1053 (1986), except that the CAT reporter gene was substituted by a polynucleotide sequence encoding luciferase. The ER-RAR-α, ER-RARβ and ER-RAR-γ chimeric receptor-encoding polynucleotides employed in the co-transfection have been described by Graupner et al. in Biochem. Biophys. Res. Comm. 179:1554 (1991). […] Calcium phosphate transfections were carried out exactly as described in Example 6 using 0.5 μg/well of reporter plasmid and either 0.05 μg, 0.10 μg or 0.2 μg/well of receptor plasmid. […] Cell lysates and luciferase activity measurements were performed as described in Example 6.

A further assay has as its system ER-RAR-γ. Described as above. To be noted: 10^−9 to 10^−6 M, 18 hours, single agent.
Source text: as §1, §2

The subject of a further assay is ECE16-1 cells. In words: Example 17: EGF dependent proliferation of ECE16-1 cells. On the procedure: ECE16-1 cells were seeded at a density of 1×10^4 cells per cm^2 in complete medium containing DMEM:F12 (3:1), nonessential amino acids, 5% FBS, 5 μg/ml transferring, 2 nM of 3,3′,5 triiodothyronine (thyroid hormone or “T3”), 0.1 nNM cholera toxin, 2 mM L-glutamine, 1.8×10^−4 M adenine and 10 ng/ml EGF. Cells were allowed to attach to plates overnight and then shifted to defined medium containing DMEM:F12 (3:1), 2 mM L-glutamine, nonessential amino acids, 0.1% bovine serum albumin, 1.8×10^−4 M adenine, 5 μg/ml transferring, 2 nM T3, 50 μg/ml ascorbic acid, 100 ug/ml streptomycin, 100 units/ml penicillin and 50 μg/ml gentamicin. Defined medium (DM) was supplemented with 10 ng/ml EGF. […] After three days of treatment, cells were harvested as described by Hembree et al. in Cancer Res. 54:3160 (1994) and cell numbers determined using a COULTER counter.

Another assay concerns the target T1, RARγ (Homo sapiens, UniProt P13631).
T1 sequence (P13631 1-454): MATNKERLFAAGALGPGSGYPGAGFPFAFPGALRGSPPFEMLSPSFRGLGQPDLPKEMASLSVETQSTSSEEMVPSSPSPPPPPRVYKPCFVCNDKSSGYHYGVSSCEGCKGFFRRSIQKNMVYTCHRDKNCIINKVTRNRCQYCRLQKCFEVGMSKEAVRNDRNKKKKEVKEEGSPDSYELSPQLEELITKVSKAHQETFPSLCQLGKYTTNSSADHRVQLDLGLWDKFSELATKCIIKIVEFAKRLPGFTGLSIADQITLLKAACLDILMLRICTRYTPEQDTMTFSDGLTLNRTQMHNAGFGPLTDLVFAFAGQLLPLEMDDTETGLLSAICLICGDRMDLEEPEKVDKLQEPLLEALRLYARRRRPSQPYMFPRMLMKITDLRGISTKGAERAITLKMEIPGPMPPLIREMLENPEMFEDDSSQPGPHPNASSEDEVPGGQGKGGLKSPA
As to the kind of experiment: Transactivation in CV-1 cells, ΔMTV-TREp-Luc reporter. The following applies: 10^−9 to 10^−6 M, 18 hours. Set-up: expressed in transfected cells; host or cells: green monkey CV-1 cells.

For another assay, the target named is T2, RARβ (Homo sapiens, UniProt P10826).
T2 sequence (P10826 1-448 isoform P10826-2): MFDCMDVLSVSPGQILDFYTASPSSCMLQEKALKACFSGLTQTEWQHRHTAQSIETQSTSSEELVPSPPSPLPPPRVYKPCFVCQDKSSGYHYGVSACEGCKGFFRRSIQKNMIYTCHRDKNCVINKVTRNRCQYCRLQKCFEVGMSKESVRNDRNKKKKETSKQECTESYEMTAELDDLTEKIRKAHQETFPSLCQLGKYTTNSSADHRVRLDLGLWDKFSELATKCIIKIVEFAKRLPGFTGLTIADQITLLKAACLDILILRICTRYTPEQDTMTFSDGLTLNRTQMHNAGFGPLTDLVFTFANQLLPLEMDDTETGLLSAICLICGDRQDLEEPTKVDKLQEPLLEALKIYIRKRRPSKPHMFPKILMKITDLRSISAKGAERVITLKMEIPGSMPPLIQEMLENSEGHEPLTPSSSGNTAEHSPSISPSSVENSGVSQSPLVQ
In words: Example 7: inhibition of RAR transactivation by ATRA, CV-1 cells. Set-up: expressed in transfected cells; host or cells: green monkey CV-1 cells. The following applies: equal doses of AGN 193109 and ATRA (10 nM ATRA). As for the experimental part:
Eukaryotic expression vectors pRShRAR-α (Giguere et al. Nature 330:624 (1987)), pRShRAR-β (Benbrook et al. Nature 333:669 (1988)) and pRShRAR-γ (Ishikawa et al. Mol. Endocrinol. 4:837 (1990)) were cotransfected with the Δ-MTV-Luc reporter plasmid described by Hollenberg et al. (Cell 55:899.(1988)). […] Calcium phosphate transfections were carried out exactly as described in Example 6. […] Cell lysates and luciferase activity measurements were also performed as in Example 6.

In the case of `Cc1ccc(C2=CCC(C)(C)c3ccc(C#Cc4ccc(C(=O)O)cc4)cc32)cc1` [Compound 60, 4-[(5,6-dihydro-5,5-dimethyl-8-(4-methylphenyl)-2-naphthalenyl)ethynyl]benzoic acid], the luciferase reporter activity entry with ER-RAR-β and in the assay on ER-RAR-γ was “dose responsive decrease in luciferase reporter activity” each time. Besides, in the assay with ECE16-1 cells (1000 nM AGN 193109 alone), the EGF mediated proliferation entry was “no effect on the EGF mediated proliferation increase”. Further, the “antagonism of AGN 191183 mediated growth inhibition” value in the assay with ECE16-1 cells (AGN 193109 10 nM with 10 nM AGN 191183) is reported as “approximately 50%”. The “antagonism of AGN 191183 antiproliferative effect” value with ECE16-1 cells (ten-fold molar excess of AGN 193109 over 10 nM AGN 191183) is listed as “completely reversed the antiproliferative effect of AGN 191183”. Moreover, the “EC50 (nM) RAR-γ” value on RARγ is on record as “No Activity”. In addition, the “inhibition of luciferase activity relative to ATRA alone” value on RARβ is given as “greater than 50%”.

Source of the values: patent US6469028B1, “Synthesis and use of retinoid compounds having negative hormone and/or anatgonist activities” (Allergan, Inc., priority 1995, dated 2002).
